Data on 8 molecules can be found in ChEMBL document CHEMBL1201862, “PubChem BioAssay data set” (2004).

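All cell lines were grown in 96-well plates and treated with compound for 48 hours. GI50 is the concentration that inhibits growth by half.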 Activity calls are given as the source filed them. Rule as the data show it: active = GI50 up to about 1.1 µM and inactive = higher.

Some test systems named below: T47D; NCI/ADR-RES; HCT-116; COLO 205; HCC 2998; UO-31; SNB-19; NCI-H23; OVCAR-5; Malme-3M; BT-549; HCT-15; U-251; OVCAR-8; CCRF-CEM; MDA-MB-435; HOP-62; PC-3; K562; UACC-62.
Common to all, as to assay: NCI tumour cell line growth inhibition, 48 h

As for `CC(=N\N=C\c1ccccn1)/C(C)=N/N=C/c1ccccn1`, the GI50 in the experiment on T47D, in the experiment with NCI/ADR-RES, with HCT-116, in the experiment with COLO 205, in the experiment with HCC 2998 and in the experiment on UO-31 was > 100 µM (inactive) each time. For the same molecule, the GI50 with SNB-19 is > 100 µM (inactive); in the experiment on NCI-H23, > 100 µM (inactive); in the experiment with OVCAR-5, > 100 µM (inactive); with Malme-3M, > 100 µM (inactive); with BT-549 it was > 100 µM (inactive); with HCT-15, 60.8 µM. Further, the GI50 with U-251 was > 100 µM (inactive); in the experiment on OVCAR-8, > 100 µM (inactive); in the experiment with CCRF-CEM it was > 100 µM (inactive); in the experiment with MDA-MB-435, 42.9 µM (inactive); in the experiment with HOP-62, > 100 µM (inactive); in the experiment with PC-3 it was > 100 µM (inactive).

As to `Cc1c(C(=O)c2ccccc2)[n+]([O-])c2cc(Cl)c(Cl)cc2[n+]1[O-]`, the GI50 is 0.889 µM (active) in the experiment on T47D; 17.9 µM (inactive) in the experiment on NCI/ADR-RES; 13.5 µM (inactive) with HCT-116; 18.1 µM (inactive) in the experiment on COLO 205; 4.01 µM (inactive) with K562; 1.56 µM (inactive) in the experiment with HCC 2998. Further, the GI50 was 11.8 µM (inactive) in the experiment with UO-31; 16.6 µM (inactive) with SNB-19; 2.39 µM (inactive) with NCI-H23; 17.9 µM (inactive) in the experiment with OVCAR-5; 16.9 µM (inactive) with BT-549; 1.99 µM with HCT-15. The GI50 was 15.6 µM (inactive) with U-251; 10 µM (inactive) in the experiment on OVCAR-8; 11.4 µM (inactive) in the experiment with UACC-62; 19.3 µM (inactive) in the experiment with CCRF-CEM; 11.9 µM (inactive) in the experiment with MDA-MB-435; 15.9 µM (inactive) in the experiment with HOP-62. In addition, the GI50 in the experiment with PC-3 was 17.4 µM (inactive).

`COc1cccc(/C=C/C2=NN(c3cccc(S(=O)(=O)O)c3)C3(C2)SCC(=O)N3c2nc3ccccc3s2)c1` (stereo unspecified): the GI50 with T47D was 16.1 µM (inactive); in the experiment with NCI/ADR-RES it was 53.3 µM (inactive); with HCT-116, 62.7 µM (inactive); in the experiment with COLO 205, > 100 µM (inactive); in the experiment with K562, 34.3 µM (inactive); in the experiment with HCC 2998 it was 95.1 µM (inactive). The GI50 in the experiment on UO-31 was 34.9 µM (inactive); with SNB-19, 52.5 µM (inactive); in the experiment on NCI-H23, 86.1 µM (inactive); with OVCAR-5, > 100 µM (inactive); in the experiment with Malme-3M, 47 µM (inactive); in the experiment on BT-549, 53 µM (inactive). Besides, the GI50 in the experiment on HCT-15 was 53.5 µM; in the experiment on U-251, 30.5 µM (inactive); with OVCAR-8 it was 40.7 µM (inactive); in the experiment with UACC-62, 36 µM (inactive); in the experiment on CCRF-CEM, 30.8 µM (inactive); with MDA-MB-435 it was 24.4 µM (inactive). Also, the GI50 in the experiment on PC-3 was 37.9 µM (inactive).

Take `Cc1cc(=O)oc2cc(OS(C)(=O)=O)ccc12`: the GI50 with T47D, in the experiment on NCI/ADR-RES, in the experiment with HCT-116, in the experiment on COLO 205, in the experiment on K562 and in the experiment on HCC 2998 was > 100 µM (inactive) throughout. Besides, the GI50 was > 100 µM (inactive) with SNB-19; > 100 µM (inactive) in the experiment with NCI-H23; > 100 µM (inactive) in the experiment with OVCAR-5; > 100 µM (inactive) with Malme-3M; > 100 µM (inactive) in the experiment on BT-549; above 100 µM in the experiment on HCT-15. Moreover, the GI50 in the experiment with U-251, in the experiment with OVCAR-8, in the experiment with UACC-62, in the experiment on CCRF-CEM, in the experiment on MDA-MB-435 and in the experiment with HOP-62 was > 100 µM (inactive) in each case. The GI50 with PC-3 is > 100 µM (inactive).

Turning to `c1ccc(COC2NCCN2Cc2ccccc2)cc1` (stereo unspecified), the GI50 in the experiment on T47D is > 100 µM (inactive); in the experiment on NCI/ADR-RES it was 84.5 µM (inactive); with HCT-116, > 100 µM (inactive); in the experiment on COLO 205, > 100 µM (inactive); in the experiment on K562, > 100 µM (inactive); in the experiment with UO-31, > 100 µM (inactive). The GI50 in the experiment on SNB-19 is > 100 µM (inactive); with NCI-H23, > 100 µM (inactive); with OVCAR-5 it was > 100 µM (inactive); in the experiment with Malme-3M it was > 100 µM (inactive); in the experiment with BT-549 it was > 100 µM (inactive); with HCT-15, above 100 µM. Moreover, the GI50 in the experiment with U-251 is > 100 µM (inactive); in the experiment with OVCAR-8, > 100 µM (inactive); in the experiment with UACC-62, 63.2 µM (inactive); in the experiment on CCRF-CEM, > 100 µM (inactive); with MDA-MB-435 it was > 100 µM (inactive); in the experiment with HOP-62, > 100 µM (inactive). In the experiment on PC-3, the GI50 is > 100 µM (inactive).

For the molecule `COc1ccc(OCC(=N/NC(=O)c2ccncc2)/N=C/c2cccnc2)cc1`, the GI50 with T47D is > 100 µM (inactive); in the experiment with NCI/ADR-RES, > 100 µM (inactive); in the experiment with HCT-116, > 100 µM (inactive); in the experiment with COLO 205, 64.6 µM (inactive); in the experiment on K562, 44.7 µM (inactive); in the experiment with HCC 2998 it was 83.9 µM (inactive). Moreover, the GI50 in the experiment with SNB-19 was > 100 µM (inactive); with NCI-H23 it was > 100 µM (inactive); in the experiment on OVCAR-5 it was > 100 µM (inactive); in the experiment with Malme-3M it was 43.6 µM (inactive); with BT-549, > 100 µM (inactive); in the experiment with HCT-15, 60.7 µM. The GI50 was > 100 µM (inactive) in the experiment with U-251; > 100 µM (inactive) in the experiment on OVCAR-8; 43.4 µM (inactive) with UACC-62; > 100 µM (inactive) in the experiment with CCRF-CEM; 18.2 µM (inactive) in the experiment with MDA-MB-435; 72.1 µM (inactive) with HOP-62. Moreover, in the experiment with PC-3, the GI50 is > 100 µM (inactive).

As for `NC(=O)CC1OC(=O)Cc2cc3c(c(O)c21)C(=O)c1c(O)cccc1C3=O` (stereo unspecified), the GI50 is > 100 µM (inactive) with T47D; > 100 µM (inactive) with NCI/ADR-RES; > 100 µM (inactive) with HCT-116; 61.2 µM (inactive) with COLO 205; 39.5 µM (inactive) with K562; > 100 µM (inactive) with HCC 2998. Also, the GI50 in the experiment on UO-31 was 32.9 µM (inactive); with SNB-19, > 100 µM (inactive); with NCI-H23, > 100 µM (inactive); in the experiment with OVCAR-5, > 100 µM (inactive); in the experiment with Malme-3M it was > 100 µM (inactive); in the experiment with BT-549 it was > 100 µM (inactive). For the same molecule, the GI50 is 71.4 µM in the experiment with HCT-15; > 100 µM (inactive) with U-251; > 100 µM (inactive) in the experiment with OVCAR-8; > 100 µM (inactive) in the experiment on UACC-62; 59.8 µM (inactive) with CCRF-CEM; > 100 µM (inactive) in the experiment on MDA-MB-435. For the same molecule, in the experiment on PC-3, the GI50 was > 100 µM (inactive).

For the molecule `O=C(c1ccco1)N1CCCN(C(=O)c2ccco2)C1=S`, the GI50 in the experiment on T47D is 7.35 µM (inactive); in the experiment with NCI/ADR-RES, > 100 µM (inactive); in the experiment on HCT-116, > 100 µM (inactive); in the experiment on COLO 205 it was > 100 µM (inactive); in the experiment with K562, > 100 µM (inactive); in the experiment with UO-31, > 100 µM (inactive). For the same molecule, the GI50 with SNB-19 was > 100 µM (inactive); in the experiment on NCI-H23, > 100 µM (inactive); in the experiment on OVCAR-5, > 100 µM (inactive); with Malme-3M, 33 µM (inactive); with BT-549, > 100 µM (inactive); in the experiment on HCT-15, above 100 µM. The GI50 in the experiment with U-251 was > 100 µM (inactive); with OVCAR-8, > 100 µM (inactive); in the experiment on UACC-62, > 100 µM (inactive); in the experiment on CCRF-CEM it was > 100 µM (inactive); in the experiment on MDA-MB-435, > 100 µM (inactive); in the experiment on HOP-62, 72.1 µM (inactive). Also, in the experiment with PC-3, the GI50 was 24.4 µM (inactive).
